The values that follow come from patent publication US9822106B2, “Inhibitors of leukotriene A4 hydrolase” (Celtaxsys, Inc., priority 2013, dated 2017).

Experiment [1] has as its system ionophore-induced LTB4 production. To be noted: oral administration; mouse blood ex vivo; cited from earlier work.
In a further experiment the test system is colitis. The following applies: eight weeks of treatment; cotton top tamarins; cited from earlier work.
The test system of experiment [2] is ionophore-induced LTB4 production. The following applies: oral administration; rat peritoneum in vivo; cited from earlier work.
The target of experiment [3] is T1, LTA4-h (Homo sapiens, UniProt P09960).
T1 sequence (P09960 1-611): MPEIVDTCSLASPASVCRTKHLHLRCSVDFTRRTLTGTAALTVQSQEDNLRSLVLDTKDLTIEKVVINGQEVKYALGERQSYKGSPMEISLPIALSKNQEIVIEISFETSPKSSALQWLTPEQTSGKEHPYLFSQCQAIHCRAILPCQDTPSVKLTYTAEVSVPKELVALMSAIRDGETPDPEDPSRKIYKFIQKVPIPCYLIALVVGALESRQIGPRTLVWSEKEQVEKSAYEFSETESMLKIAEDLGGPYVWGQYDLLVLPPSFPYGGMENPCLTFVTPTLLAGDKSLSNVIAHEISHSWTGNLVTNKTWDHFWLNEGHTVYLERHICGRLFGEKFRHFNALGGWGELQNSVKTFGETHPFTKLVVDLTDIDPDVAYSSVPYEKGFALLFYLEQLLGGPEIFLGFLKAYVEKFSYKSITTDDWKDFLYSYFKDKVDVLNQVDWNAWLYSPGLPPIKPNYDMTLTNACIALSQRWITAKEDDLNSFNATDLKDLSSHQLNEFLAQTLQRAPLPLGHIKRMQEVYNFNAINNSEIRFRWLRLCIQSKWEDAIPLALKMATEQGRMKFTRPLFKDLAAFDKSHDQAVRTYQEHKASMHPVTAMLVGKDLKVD
Nature of the experiment: peptidase (aminopeptidase) assay. Format: biochemical. The source says: Since LTA4-h hydrolase is grouped with the M1 family of zinc metalloproteases (see, Rudberg, P. C. et al., J. Biol. Chem. 2002, Vol. 277, page 1398-1404), the compounds of the invention can be tested in the standard hydrolase and peptidase assay to determine the compounds' kinetic constants for binding to LTA4-h hydrolase and for inhibiting LTB4 synthesis (see Askonas, L. J., et al., The Journal of Pharmacology and Experimental Therapeutics 2002, 300(2): 577-582; Penning, T. D., J. Med. Chem. 2000, 43(4): 721-735; Kull, F. et al., The Journal of Biological Chemistry 1999, 274 (49): 34683-34690, the contents of which are expressly incorporated by reference herein).
The whole blood and aminopeptidase assays were performed as described in Penning et al., J. Med. Chem. 2000, 43, 721-735, and Rudberg et al., J. Biol. Chem. Vol. 279, No. 26, Issue of June 25, pp. 27376-27382, 2004, the contents of each of which are expressly incorporated by reference herein. The hydrolase assay was performed as described in U.S. Pat. No. 7,737,145, the contents of which are expressly incorporated herein.

A further experiment has as its target T2, LTA4-h hydrolase (Homo sapiens, UniProt P09960).
T2 construct: from tissue; host or cells: whole blood
T2 sequence (P09960 1-611): T1 sequence (P09960 1-611)
Nature of the experiment: whole blood assay (WBA). Format: cell-based. The following applies: read-out: IC50 WBA. The source says: Compounds of the invention can also be tested for their ability as inhibitors of LTA4-h hydrolase in the whole blood assay using human, mouse, rat or dog whole blood (see Penning, T. D. et al., J. Med. Chem. (2000), 43(4): 721-735 for a description of a human whole blood assay and a mouse whole blood assay, the contents of which are expressly incorporated herein).
(§1) Tables 4 to 6 below show the IC50 values for peptidase, hydrolase and whole blood assay (WBA) activity for exemplary compounds encompassed by the invention. The whole blood and aminopeptidase assays were performed as described in Penning et al., J. Med. Chem. 2000, 43, 721-735, and Rudberg et al., J. Biol. Chem. Vol. 279, No. 26, Issue of June 25, pp. 27376-27382, 2004, the contents of each of which are expressly incorporated by reference herein. The hydrolase assay was performed as described in U.S. Pat. No. 7,737,145, the contents of which are expressly incorporated herein.

Experiment [4] deals with T1, LTA4-h. The experiment can be described thus: hydrolase assay (hydrolase-homogeneous time resolved fluorescence). Format: biochemical.
Description: The compounds of the invention can be tested for their ability to inhibit LTA4-h by various known assays and by assays described herein. For example, the compounds can be tested for their ability to inhibit LTA4-h activity by assaying the compounds in the hydrolase-homogeneous time resolved fluoroescence assay. This assay, which is a two-step assay, measures the hydrolysis of […] to LTB4 by analyzing the amount of LTB4 produced. The first step involves the enzymatic conversion of […] to LTB4 and the second step involves the quantification of the […] with a homogeneous time resolved fluoroescence assay.
as §1

The structures appear in SMILES notation. Read-outs that look alike come from different tables or passages of the source.

Turning to `CN(CCCOc1ccc(Cc2ccccc2)cc1)CCC(=O)O.Cl` [SC57461], the “inhibition of ionophore-induced LTB4 production” value in experiment [1] and in experiment [2] was “caused inhibition” throughout. Further, the colitis symptoms result with colitis is recorded as “significantly improved colitis symptoms”.
Broadly, the IC50 is the midpoint of a concentration-inhibition curve. Consider `O=C(O)C1CCCN(c2ccc(CNCc3ccc(Oc4ccc(Cl)cc4)cc3)cn2)C1` (stereo not drawn) [Compound 22], for which the half-maximal inhibitory concentration (IC50) against LTA4-h [3] was 3.9 nM; on LTA4-h hydrolase, 32 nM; against LTA4-h [4], 4.8 nM.
For `Cc1c(C(=O)O)ncn1-c1ccc(CNCc2ccc(Oc3ccc(Cl)cc3)cc2)cn1` [Compound 16], in that order: 81 nM, 880 nM and 3 nM.
As for `COCCN(Cc1ccc(Oc2ccc(Cl)cc2)cc1)Cc1ccc(N2CCCC(C(=O)O)C2)nc1` (stereo not drawn) [Compound 23], the figures for the half-maximal inhibitory concentration (IC50) against LTA4-h [3], on LTA4-h hydrolase and against LTA4-h [4] were 85 nM, 470 nM and 700 nM, respectively.
